Experiment [1] can be described thus: Inhibition of protein phosphatase (PP2A) at 100 uM.
For a further experiment, the species on record is Homo sapiens. The experiment in a line: Inhibition of protein phosphatase (PP2A) at 10 uM using fluorescein diphosphate.
A short description of experiment [2]: Inhibitory activity against protein phosphatase (PP2A) at 1 uM using fluorescein diphosphate.
Experiment [3] is described as follows: Inhibition of protein phosphatase (PP2A) at 250 uM.
Experiment [4] relates to Serine/threonine-protein phosphatase 2A catalytic subunit alpha. The experiment in a line: Inhibitory activity against protein phosphatase (PP2A) at concentration of 1 uM using fluorescein diphosphate as substrate.
For experiment [5], the target named is T1, Serine/threonine-protein phosphatase 2A 55 kDa regulatory subunit B alpha isoform (Homo sapiens) (UniProt P63151).
T1 sequence (whole entry): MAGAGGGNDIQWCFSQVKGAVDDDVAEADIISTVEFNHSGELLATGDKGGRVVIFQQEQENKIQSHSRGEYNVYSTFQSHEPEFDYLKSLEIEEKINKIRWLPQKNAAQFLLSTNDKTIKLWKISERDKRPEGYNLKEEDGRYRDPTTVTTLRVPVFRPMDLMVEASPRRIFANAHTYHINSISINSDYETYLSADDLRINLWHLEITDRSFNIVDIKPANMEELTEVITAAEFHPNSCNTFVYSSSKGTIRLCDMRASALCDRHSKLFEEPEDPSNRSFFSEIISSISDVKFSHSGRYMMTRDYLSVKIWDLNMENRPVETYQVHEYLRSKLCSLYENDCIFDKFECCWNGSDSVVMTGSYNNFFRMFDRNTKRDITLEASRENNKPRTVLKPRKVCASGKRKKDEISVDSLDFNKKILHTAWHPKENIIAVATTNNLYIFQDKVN
Put plainly: (§1) Inhibitory activity against protein phosphatase (PP2A) at a concentration of 250 uM using fluorescein diphosphate as substrate.

In experiment [6] the target is T2, Serine/threonine-protein phosphatase 2A activator (Homo sapiens) (UniProt Q15257).
T2 sequence (whole entry): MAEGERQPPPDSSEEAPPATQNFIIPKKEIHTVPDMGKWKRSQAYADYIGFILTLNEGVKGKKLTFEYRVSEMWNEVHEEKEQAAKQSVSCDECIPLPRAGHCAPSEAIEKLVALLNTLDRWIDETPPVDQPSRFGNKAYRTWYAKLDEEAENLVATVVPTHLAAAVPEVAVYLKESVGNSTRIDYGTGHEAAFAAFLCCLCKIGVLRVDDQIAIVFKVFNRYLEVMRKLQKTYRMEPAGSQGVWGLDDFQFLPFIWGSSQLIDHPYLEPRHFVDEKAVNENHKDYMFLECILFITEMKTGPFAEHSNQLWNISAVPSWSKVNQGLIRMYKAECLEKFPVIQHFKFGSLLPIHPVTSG
The experiment in a line: Inhibitory activity against protein phosphatase (PP2A) at a concentration of 150 uM using fluorescein diphosphate as substrate.

The test system of experiment [7] is Serine/threonine-protein phosphatase 2A catalytic subunit alpha. Put plainly: Inhibitory activity against protein phosphatase (PP2A) at a concentration of 125 uM using fluorescein diphosphate as substrate.
Experiment [8] has the same test system. Put plainly: Inhibitory activity against protein phosphatase (PP2A) at a concentration of 200 uM using fluorescein diphosphate as substrate.
Experiment [9] has the same test system. The experiment in a line: Inhibitory activity against protein phosphatase (PP2A) at concentration of 10 uM using fluorescein diphosphate as substrate.
Experiment [10] has the same test system. The experiment in a line: Inhibitory activity against protein phosphatase (PP2A) at concentration of 100 uM using fluorescein diphosphate as substrate.
The target in experiment [11] is T2, Serine/threonine-protein phosphatase 2A activator (Homo sapiens). Put plainly: Inhibitory activity against protein phosphatase (PP2A) at a concentration of 100 uM using fluorescein diphosphate as substrate.
Experiment [12] shares this target. Described as §1.
The target is the same in experiment [13]. Put plainly: Inhibitory activity against protein phosphatase (PP2A) at concentration of 250 uM using fluorescein diphosphate as substrate.
Experiment [14] concerns Serine/threonine-protein phosphatase 2A catalytic subunit alpha. The experiment in a line: Inhibitory activity against protein phosphatase (PP2A) at a concentration of 150 uM using fluorescein diphosphate as substrate.

On to `C=C([C@H](O)C[C@H](O)[C@@]1(C)CC[C@H](C(C)(C)O)O1)[C@H]1CC[C@H]2O[C@@H]([C@]3(C)CC[C@@H](Br)C(C)(C)O3)CC[C@]2(C)O1`, for which the inhibition in experiment [1] was 65.1%; in the experiment filed under Homo sapiens, 45.6%; in experiment [2], 42.2%; in [3], 79.3%.
With `CC(CCC[C@H]1O[C@@H]([C@]2(C)CC[C@@H](Br)C(C)(C)O2)CC[C@]1(C)O)CC[C@H](O)[C@@]1(C)CC[C@H](C(C)(C)O)O1` (stereo partly specified), the inhibition in [1] was 57.8%; in the experiment filed under Homo sapiens it was 45.9%; in experiment [3] it was 74.5%; in experiment [4], 43.6%.
As to `C=C(CC[C@H](O)[C@@]1(C)CC[C@H](C(C)(C)O)O1)[C@H]1CC[C@H]2O[C@@H]([C@]3(C)CC[C@@H](C(C)(C)O)O3)CC[C@]2(C)O1`, the inhibition stood at 40.4% in experiment [1], 0% in the experiment listed under Homo sapiens, 0% in [2] and 55.4% in [3].
For `C/C(=C\C[C@H](O)[C@@]1(C)CC[C@H](C(C)(C)O)O1)[C@H]1CC[C@H]2O[C@@H]([C@]3(C)CC[C@@H](Br)C(C)(C)O3)CC[C@@]2(C)O1`, the inhibition in experiment [1] is 99.5%; in the experiment listed under Homo sapiens it was 41.9%; in [2], 17.9%; in experiment [5] it was 100%.
Take `C=C(CC[C@H]1O[C@@H](C(C)(C)O)CC[C@]1(C)O)[C@H]1CC[C@H]2O[C@@H]([C@]3(C)CC[C@@H](Br)C(C)(C)O3)CC[C@]2(C)O1`: the inhibition was found to be 74.7% in experiment [1], 6.2% in the experiment filed under Homo sapiens, 0% in [2] and 81.3% in experiment [3].
In the case of `C=C(CC[C@H](O)[C@@]1(C)CC[C@H](C(C)(C)O)O1)[C@H]1CC[C@H]2O[C@@H]([C@]3(C)CC[C@](OC)(C(C)C)O3)CC[C@]2(C)O1`, the inhibition was 43.1% in [1], 2.7% in the experiment listed under Homo sapiens, 0% in experiment [2] and 55.4% in experiment [3].
For the molecule `C=C(CC[C@H](O)[C@@]1(C)CC[C@H](C(C)(C)O)O1)[C@H]1CC[C@H]2O[C@@H]([C@]3(C)CC[C@@H](Br)C(C)(C)O3)CC[C@@]2(C)O1`, the inhibition in experiment [1] came to 11.4%; in experiment [6], 26.1%; in experiment [3] it was 66.4%; in experiment [7], 24%; in experiment [8], 47.8%.
With `CC(C)(O)[C@H]1CC[C@](C)([C@@H](O)CC[C@](O)(CO)C2=CC[C@H]3O[C@@H]([C@]4(C)CC[C@@H](Br)C(C)(C)O4)CC[C@]3(C)O2)O1`, the inhibition is 99.1% in experiment [1], 93.2% in the experiment listed under Homo sapiens, 52.8% in experiment [2] and 100% in experiment [3].
For the molecule `C=C(CC[C@H](O)[C@@]1(C)CC[C@H](C(C)(C)O)O1)[C@H]1CC[C@H]2O[C@@H]([C@]3(C)CC[C@@H](C(C)(C)OC)O3)CC[C@]2(C)O1`, the inhibition in experiment [1] came out at 65.1%; in the experiment filed under Homo sapiens, 4.7%; in experiment [2], 0%; in experiment [3], 57.2%.
On to `C=C(CC[C@H](O)[C@@]1(C)CC[C@H](C(C)(C)O)O1)[C@H]1CC[C@H]2O[C@]3(C)CC[C@@H](Br)C(C)(C)O[C@H]3CC[C@]2(C)O1`, for which the inhibition in [3] was found to be 66.5%; in [4], 18.9%; in experiment [9], 20.4%; in [10] it was 59.7%.
Regarding `C=C(CC[C@H](O)[C@@]1(C)CC[C@H](C(C)(C)O)O1)[C@H]1CC[C@H]2O[C@@H]([C@]3(C)CCC(=O)O3)CC[C@]2(C)O1`, the inhibition in experiment [1] stood at 49.4%; in the experiment filed under Homo sapiens, 40.1%; in experiment [2] it was 33.7%; in [3], 63.2%.
On to `C=C(CC[C@H](O)[C@@]1(C)CC[C@H](C(C)(C)O)O1)[C@H]1CC[C@H]2O[C@@H]([C@]3(C)CC[C@@H](Br)C(C)(C)O3)CC[C@]2(C)O1`, for which the inhibition in experiment [11] was determined as 25.2%; in the experiment filed under Homo sapiens, 12.2%; in experiment [2], 8.2%; in experiment [12], 37.7%.
Turning to `CC(C)(O)[C@H]1CC[C@](C)([C@@H](O)CC[C@@](O)(CO)C2=CC[C@H]3O[C@@H]([C@]4(C)CC[C@@H](Br)C(C)(C)O4)CC[C@]3(C)O2)O1`, the inhibition in experiment [1] was 89.6%; in the experiment listed under Homo sapiens, 31.8%; in experiment [2] it was 15.2%; in experiment [3], 97.8%.
Turning to `C=C(CC[C@@H](O)[C@]1(C)CC[C@H](C(C)(C)O)O1)[C@H]1CC[C@H]2O[C@@H]([C@]3(C)CC[C@@H](Br)C(C)(C)O3)CC[C@]2(C)O1`, the inhibition turned out to be 95.3% in experiment [13], 7.5% in [4], 23.7% in [9] and 66.8% in [10].
In the case of `C=C([C@@H](O)C[C@H](O)[C@@]1(C)CC[C@H](C(C)(C)O)O1)[C@H]1CC[C@H]2O[C@@H]([C@]3(C)CC[C@@H](Br)C(C)(C)O3)CC[C@]2(C)O1`, the inhibition in experiment [1] was found to be 100%; in the experiment listed under Homo sapiens, 93.4%; in experiment [2], 41.1%; in experiment [3], 100%.
For the molecule `C/C(=C/C[C@@H](O)[C@]1(C)CC[C@H](C(C)(C)O)O1)[C@H]1CC[C@H]2O[C@@H]([C@]3(C)CC[C@@H](Br)C(C)(C)O3)CC[C@]2(C)O1`, the inhibition in experiment [1] was determined as 6.5%; in experiment [3] it was 59.8%; in experiment [7], 18.8%; in experiment [14], 32.7%; in [8], 35.8%.

The inhibition is the share of the control response that was lost under treatment. A higher inhibition goes with a response far below the control.

The record behind these values is ChEMBL document CHEMBL1136676, “The inhibitory effects of squalene-derived triterpenes on protein phosphatase PP2A” (Bioorg Med Chem Lett, 2003).
